Assay results as given in patent publication US9067923B2, “Substituted quinoxalines” (Kyowa Hakko Kirin Co., Ltd., priority 2011, dated 2015).

What was measured:
[1] = tested on: CYP3A4; test: Induction of CYP3A4 using HepaRG cells (midazolam metabolizing activity); format: in vitro ADME; conditions: 1 μmol/L test compound, 72 hours, 1'-hydroxymidazolam formation relative to DMSO negative control
Experimental: CYP3A4-inducing activity was evaluated using HepaRG cells (Biopredic international). HepaRG cells were suspended in a medium at a concentration of 0.72×10^6 cells/mL and added in a volume of 100 μL to each well of a 96-well collagen coated plate (Biopredic international). The medium used for seeding HepaRG cells was HepaRG Thawing and Seeding Medium 670 (Biopredic international) and the medium used during treatment with a test compound was HepaRG Serum-free Induction Medium 650 (Biopredic international). Three days after the seeding of HepaRG cells, treatment with a test compound was started. After 200 μL of HepaRG Serum-free Induction Medium 650 was added to each well of the 96-well, collagen plate, a test compound dissolved in dimethylsulfoxide (DMSO) was added in a volume of 0.5 μL to each well so that the final concentration was 1 μmol/L. The well to which only DMSO was added was used as a negative control. The medium in the wells containing the test compound was replaced every 24 hours and the treatment with the test compound was continued for 72 hours. The fourth day after the start of the treatment with the test compound, midazolam, which is a typical substrate for CYP3A4, was added and CYP3A4-inducing activity was evaluated by measuring changes in the metabolic activity. The medium was removed by suction and each well was washed twice with PBS (150 μL/well) warmed to 37° C. HepaRG Serum-free Induction Medium 650 containing 20 μmol/L midazolam was warmed to 37° C. and added in a volume of 100 μL to each well. The plate was incubated in a CO2 incubator for 2 hours. At the end of the reaction, 70 μL of the reaction medium was recovered from each well and mixed with 70 μL of a methanol solution containing an internal standard (propranolol, 2 μmol/L). The mixture was centrifuged (at 5000×g at 4° C. for 10 minutes) and the supernatant was used as an analysis sample. The midazolam metabolizing activity was evaluated by measuring the amount of a produced metabolite by CYP3A4, 1′-hydroxymidazolam, by means of a liquid chromatograph-tandem mass spectrometry (LC-MS/MS). Agilent 1100 series (Agilent technologies) was used as the LC device, API2000 (AB sciex) was used as the MSMS device, and HTC PAL (CTC analytics) was used as the autosampler. CAPCELL PAK C18 ACR column (3 μm, 3 mm (I. D.)×35 mm, purchased from Shiseido Co., Ltd.) was used as the analytical column. The mobile phase A was 10 mmol/L aqueous ammonium acetate solution and the mobile phase B was methanol. The gradient conditions were 0 min (B=30%), 0.2 min (B=30%), 2.2 min (B=95%), 4 min (B=95%), 4.01 min (B=30%), 5 min (B=30%). The flow rate was 0.6 mL/min and the sample injection volume was 30 μL. The ions were detected by atmospheric pressure ionization mode using the MSMS device. The detection was performed by multiple reaction monitoring and the 1′-hydroxy midazolam ions were detected at m/z (precursor ion>product ion)=342.1>168.2.
The fold induction by each test compound was determined by using formula A2 below, which is for calculating the fold induction as the ratio of the metabolic activity in the test compound-treatment group to that of the negative control group (DMSO-treatment group).

[2] = tested on: production of kynurenine in human gastric cancer cell line KATO-III; test: Inhibitory activity on the production of kynurenine (IFN-γ-treated KATO-III cells); format: cell-based; conditions: 10 μmol/L test compound, KATO-III cells treated with IFN-γ, 96 hours
Experimental: This assay was performed by a modification of the method described in J. Biol. Chem., vol. 263, pp. 2041-2048 ([…]). For culture of the human gastric cancer cell line […], RPMI 1640 (GIBCO, 11875) supplemented with 10 vol % FBS (GIBCO, 10091-148, lot. 665285) was used. One μL of a test substance in a DMSO solution was diluted with 199 μL of the culture medium and placed in wells of a 384-well plate (10 μL/well). Next, IFN-γ (Sigma, I-3265) was added to a fresh culture medium to a concentration of 31.25 ng/mL, and KATO-III cells were suspended at 50,000 cells/mL in the culture medium. Forty μL of the suspension was added to each well (2,000 cells/well) and cultured under 5% CO2 at 37° C. for 96 hours. The final concentration of DMSO was limited to 0.1 vol % or less so that DMSO itself may not affect the kynurenine concentration measured in this assay. After the culture, 10 μL of a 30 w/v % aqueous trichloroacetic acid solution was added to each well, and incubation was performed at 65° C. for 30 minutes. The plate was centrifruged at 2,500×g for 5 minutes and 15 μL of the supernatant in each well was transferred into another 384-well plate. To the transferred supernatant, 15 μL of a 2 w/v % solution of p-dimethylaminobenzaldehyde in acetic acid was added, incubation was performed at 65° C. for 20 minutes and the absorbance was measured at 480 nm.
Sample: the absorbance value of the well to which DMSO solution containing a test substance was added and in which the cells were treated with IFN-γ.
Blank: the absorbance value of the well to which DMSO not containing a test substance was added and in which the cells were treated with IFN-γ.
Control: the absorbance value of the well to which DMSO not containing a test substance was added and in which the cells were not treated with IFN-γ.
The inhibition % of each test compound was calculated by formula A1.
In this assay, the expression of IDO in KATO-III cells is induced by IFN-γ treatment, and kynurenine in the culture medium is quantified. The kynurenine concentration in a culture medium is known to increase in proportion to the enzymatic activity of intracellular IDO (for example, J. Biol. Chem., vol. 263, pp. 2041-2048 (1988)). […] The production of kynurenine is known to be inhibited by IDO inhibitors (for example, J. Clin. Invest., vol. 117, No. 5, pp. 1147-1154 ([…])), and thus it is speculated that compounds (I) also have an inhibitory effect on IDO.

| Structure (SMILES) | Fold induction [1] | inhibition at 10 µM [2] [%] |
| --- | --- | --- |
| COCCS(=O)(=O)Nc1nc2ccccc2nc1O[C@H](c1ccc(-c2cnco2)nc1)C(F)(F)F [Compound 30, (R)-2-methoxy-N-(3-(2,2,2-trifluoro-1-(6-(oxazol-5-yl)pyridin-3-yl)ethoxy)quinoxalin-2-yl)ethanesulfonamide] | 1.12 | ≥ 80 |
| CCCS(=O)(=O)Nc1nc2ccccc2nc1O[C@H](c1ccc(-c2noc(C)n2)nc1)C(F)(F)F [Compound 28, (R)-N-(3-(2,2,2-trifluoro-1-(6-(5-methyl-1,2,4-oxadiaxol-3-yl)pyridin-3-yl)ethoxy)quinoxalin-2-yl)propane-1-sulfonamide] | 1.27 |  |
| COCCS(=O)(=O)Nc1nc2ccccc2nc1O[C@H](c1ccc(-c2noc(C3CC3)n2)nc1)C(F)(F)F [Compound 37, (R)-N-(3-(1-(6-(5-cyclopropyl-1,2,4-oxadiasol-3-yl)pyridin-3-yl)-2,2,2-trifluoroethoxy)quinoxalin-2-yl)-2-methoxyethanesulfonamide] | 1.33 |  |
| CCCS(=O)(=O)Nc1nc2ccccc2nc1OC(c1ccc(-c2noc(C3CC3)n2)nc1)C(F)(F)F (stereo not shown) [Compound 25, N-(3-(1-(6-(5-cyclopropyl-1,2,4-oxadiazol-3-yl)pyridin-3-yl)-2,2,2-trifluoroethoxy)quinoxalin-2-yl)propane-1-sulfonamide] | 1.41 | ≥ 80 |
| COCCS(=O)(=O)Nc1nc2ccccc2nc1OC(c1ccc(-c2noc(C)n2)nc1)C(F)(F)F (stereo not shown) [Compound 27, 2-methoxy-N-(3-(2,2,2-trifluoro-1-(6-(5-methyl-1,2,4-oxadiazol-3-yl)pyridin-3-yl)ethoxy)quinoxalin-2-yl) ethanesulfonamide] | 1.21 |  |
